Test results taken from US20070078083A1, “MODULATION OF NEUORGENESIS BY HDac INHIBITION” (BrainCells, Inc., priority 2005, published 2007).
One block for each molecule: values may come before it.

Columns and labels:
[1] = tested on: KA, AMPA, and NMDA iGlu receptors; details: cited from earlier work
[2] = target: human mGlu3 (Homo sapiens, UniProt Q14832); details: agonist; low nanomolar range; read-out: EC50 values against human mGlu3 receptors in vitro; cited from earlier work
[3] = target: human mGlu2 (Homo sapiens, UniProt Q14416); details: agonist; low nanomolar range; read-out: EC50 values against human mGlu2 receptors in vitro; cited from earlier work
[4] = tested on: human neural stem cells (hNSCs); experiment: Neuronal differentiation of human neural stem cells (TUJ-1 staining); assay type: cell-based; details: for differentiation along a neuronal lineage (in words): hNSCs
[5] = tested on: human neural stem cells (hNSCs); experiment: Astrocyte differentiation of hNSCs (GFAP staining); assay type: cell-based; details: cultured hNSCs
Source text: Results are shown in FIGS. 2 and 11, which show the lack of astrocyte differentiation of human neural stem cells in the presence of trichostatin A and valproic acid, respectively.

[6] = tested on: neural stem and/or progenitor cells in the dentate gyrus; experiment: In vivo chronic dosing study, BrdU-positive cells in dentate gyrus; design: species or system rat; details: male Fischer F344 rats, 300 mg/kg for 28 days, vs vehicle
Protocol: Male Fischer F344 rats were treated with 300 mg/kg of valproic acid for 28 days, and then anesthetized and killed by transcardial perfusion of 4% paraformaldehyde at day 28. Brains were rapidly removed and stored in 4% paraformaldehyde for 24 hours and then equilibrated in phosphate buffered 30% sucrose. Free floating 40 micron sections were collected on a freezing microtome and stored in cyroprotectant. Antibodies against BrdU and cells types of interest (e.g., neurons, astrocytes, oligodendrocytes, endothelial cells) were used for detection of cell survival and differentiation. […] The proportion of BrdU cells displaying a lineage-specific phenotype was determined by scoring the co-localization of cell phenotype markers with BrdU using confocal microscopy. […] When possible, 100 or more BrdU-positive cells were scored for each maker per animal. Each cell was manually examined in first full “z”-dimension and only those cells for which the nucleus was unambiguously associated with the lineage-specific marker were scored as positive. The total number of BrdU-labeled cells per hippocampal granule cell layer and subgranular zone were determined using diaminobenzadine stained tissues. Overestimation was corrected using the Abercrombie method for nuclei with empirically determined average diameter of 13 um within a 40 um section.

[7] = tested on: human neural stem cells (hNSCs); experiment: Anti-proliferative effects on human neural stem cell clusters (area over fourteen days); assay type: cell-based; details: hNSC clusters after 14 days; basal media control 164%
Source text: 7, 2006 (incorporated by reference). […] Cell clusters were imaged and their area measured over fourteen days. […] As the results described in Example 3 indicate, reduction in growth is not due to increased toxicity or reduced survival, and therefore the observed reduced growth of the cell clusters results from decreased proliferation of human neural stem cells in the presence of the HDac inhibitor.

[8] = tested on: rat NeuroD1, GluR2, NFH and GAP43 promoters; experiment: In vitro rodent gene reporter assay in rNSC; assay type: cell-based; details: 2 days incubation
Source text: Briefly, cultured rodent neural stem cells (rNSC) were transfected by electroporation with a vectors containing promoters specific for the rat NeuroD1, GluR2, NFH and GAP43 genes linked to the fluorescent reporter protein DsRed. All gene reporter constructs were cloned in the same lentiviral vector backbone, and mixed with Nucleofactor solution for electroporation. A GFP vector control was used in parallel to visualize effectiveness of electroporation. Transfected rNSCs were then suspended in test media containing varying concentrations of the HDac inhibitors trichostatin A, valproic acid, MS-275 or apicidin, and a mixture of 0.5 μg renilla luciferase and 5 μg promoter-specific […] luciferase. The cells were incubated in 5% CO2 at 37° C. for 2 days, and then lysed, whereupon the cell extracts were read on a Tecan Genios Pro reader to detect the promoter-specific activation of the reporter constructs.

[9] = tested on: Group I or Group III receptors; details: at sub-mM concentrations; cited from earlier work
[10] = target: mGluR3 (Homo sapiens, UniProt Q14832); details: antagonist; read-out: IC50 value against mGluR3; cited from earlier work
[11] = target: mGluR2 (Homo sapiens, UniProt Q14416); details: antagonist; read-out: IC50 value against mGluR2; cited from earlier work
Chain of mGluR2 (Q14416 19-872): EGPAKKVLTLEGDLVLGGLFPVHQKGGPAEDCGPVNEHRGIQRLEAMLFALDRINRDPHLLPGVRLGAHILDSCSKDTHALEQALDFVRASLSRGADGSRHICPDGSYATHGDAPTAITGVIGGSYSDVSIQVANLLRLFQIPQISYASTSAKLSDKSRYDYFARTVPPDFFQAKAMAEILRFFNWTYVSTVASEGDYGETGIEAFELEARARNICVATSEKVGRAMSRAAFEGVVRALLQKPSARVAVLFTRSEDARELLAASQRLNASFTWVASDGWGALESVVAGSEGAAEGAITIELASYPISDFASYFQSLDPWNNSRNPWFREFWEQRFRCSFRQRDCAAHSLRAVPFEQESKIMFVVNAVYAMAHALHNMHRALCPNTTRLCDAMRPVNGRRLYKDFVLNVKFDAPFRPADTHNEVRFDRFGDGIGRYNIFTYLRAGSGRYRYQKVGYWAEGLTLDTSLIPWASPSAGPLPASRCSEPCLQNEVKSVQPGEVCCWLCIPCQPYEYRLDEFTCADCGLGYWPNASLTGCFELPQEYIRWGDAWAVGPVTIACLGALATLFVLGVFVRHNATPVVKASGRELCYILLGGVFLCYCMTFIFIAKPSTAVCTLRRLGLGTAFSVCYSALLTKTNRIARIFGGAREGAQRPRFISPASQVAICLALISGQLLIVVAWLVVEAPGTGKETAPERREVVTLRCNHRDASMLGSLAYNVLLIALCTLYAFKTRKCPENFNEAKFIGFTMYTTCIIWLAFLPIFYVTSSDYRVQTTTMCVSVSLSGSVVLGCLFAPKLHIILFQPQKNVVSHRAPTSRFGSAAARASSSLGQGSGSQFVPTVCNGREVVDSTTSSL

Chain of mGluR3 (Q14832 23-879): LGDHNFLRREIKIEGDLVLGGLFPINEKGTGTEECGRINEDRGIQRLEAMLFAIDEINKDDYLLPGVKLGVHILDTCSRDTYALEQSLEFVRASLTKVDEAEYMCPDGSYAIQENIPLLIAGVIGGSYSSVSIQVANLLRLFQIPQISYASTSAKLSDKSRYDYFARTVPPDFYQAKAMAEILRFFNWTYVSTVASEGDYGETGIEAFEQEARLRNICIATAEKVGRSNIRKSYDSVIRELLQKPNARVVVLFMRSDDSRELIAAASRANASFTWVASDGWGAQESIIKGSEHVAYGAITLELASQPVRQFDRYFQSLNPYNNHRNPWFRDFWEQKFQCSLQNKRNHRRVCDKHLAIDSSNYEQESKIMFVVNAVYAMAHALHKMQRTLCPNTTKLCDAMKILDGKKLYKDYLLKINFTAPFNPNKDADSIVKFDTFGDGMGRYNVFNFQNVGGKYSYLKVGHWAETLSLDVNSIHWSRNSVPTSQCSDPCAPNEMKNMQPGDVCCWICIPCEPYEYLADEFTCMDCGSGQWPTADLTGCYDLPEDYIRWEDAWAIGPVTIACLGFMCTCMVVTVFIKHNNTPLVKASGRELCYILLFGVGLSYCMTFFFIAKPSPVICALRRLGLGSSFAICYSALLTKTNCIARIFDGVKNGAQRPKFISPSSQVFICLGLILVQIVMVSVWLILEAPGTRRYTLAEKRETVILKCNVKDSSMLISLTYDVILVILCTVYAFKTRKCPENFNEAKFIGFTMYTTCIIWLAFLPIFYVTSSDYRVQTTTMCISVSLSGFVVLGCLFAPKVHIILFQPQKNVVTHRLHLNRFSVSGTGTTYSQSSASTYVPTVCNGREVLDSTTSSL
Chain of human mGlu3 (Q14832 23-879): as above
Chain of human mGlu2 (Q14416 19-872): as the sequence (Q14416 19-872) above

SMILES: N[C@](CC1c2ccccc2Oc2ccccc21)(C(=O)O)[C@H]1C[C@@H]1C(=O)O [LY341495, (2S)-2-amino-2-(1S,2S-2-carboxycycloprop-1-yl)-3-(xanth-9-yl) propanoic acid]
activity against KA, AMPA, and NMDA iGlu receptors [1]: substantially inactive

SMILES: N[C@@]1(C(=O)O)CO[C@H]2[C@H](C(=O)O)[C@H]21 [LY379268, (−)-2-Oxa-4-aminobicyclohexane-4,6-dicarboxylic acid]
EC50 [2]: < 0.01 µM | EC50 [3]: < 0.01 µM

EC50 ([5]; highest concentration tested approximately 31.6 nM): > 0.0316 µM
SMILES: CC(/C=C/C(=O)NO)=C\[C@@H](C)C(=O)c1ccc(N(C)C)cc1 [Trichostatin A, trichostatin A]
EC50 ([4]; cultured hNSCs, two experiments (Run A, Run B), normalized to neuronal positive control): ~0.00345 µM | differentiation along a neuronal lineage (in words) [4]: permits differentiation of cells along a neuronal lineage

EC50 ([5]; Homo sapiens, Neural stem cell, highest tested concentration approximately 10.0 μM): > 10 µM
SMILES: CCCC(CCC)C(=O)O [Valproic acid, 2-propylpentanoic acid]
proliferation in the dentate gyrus (proportion of BrdU-positive cells) [6]: significantly decreased proliferation | area occupied by cells, percent of the starting area [7]: 86% | differentiation along a neuronal lineage (in words) [4]: continues to promote neuronal differentiation | expression of promoters for the neurofilament high (NFH) and growth associated protein 43 (GAP43) genes [8]: promote expression | neurogenic activity, activation of the rat NeuroD1, GluR2, NFH and GAP43 promoters [8]: neurogenic

SMILES: Nc1ccccc1NC(=O)c1ccc(CNC(=O)OCc2cccnc2)cc1 [MS-275]
expression of promoters for the neurofilament high (NFH) and growth associated protein 43 (GAP43) genes [8]: promote expression | neurogenic activity, activation of the rat NeuroD1, GluR2, NFH and GAP43 promoters [8]: neurogenic

SMILES: NC1(C(=O)O)CCc2cc(P(=O)(O)O)ccc21 (racemic) [APICA, (RS)-1-amino-5-phosphonoindan-1-carboxylic acid]
activity against Group I or Group III receptors [9]: no appreciable activity | IC50 [10]: ~30 µM | IC50 [11]: ~30 µM
